Results: the NIST ThermoML archive (doi:10.1016/j.tca.2007.03.018)

Experiment: molar heat capacity at saturation pressure

C1C2CC3CC1CC(C14CC5CC(CC(C5)C1)C4)(C2)C3 [1,1'-biadamantane]
Settings	molar heat capacity [J/K/mol]
306.17 K, Crystal 3, Small (less than 1 g) adiabatic calorimetry	347.5
307.06 K, Crystal 3, Small (less than 1 g) adiabatic calorimetry	348.5
307.82 K, Crystal 3, Small (less than 1 g) adiabatic calorimetry	349.9
309.07 K, Crystal 3, Small (less than 1 g) adiabatic calorimetry	351.4
309.47 K, Crystal 3, Small (less than 1 g) adiabatic calorimetry	352.2
311.07 K, Crystal 3, Small (less than 1 g) adiabatic calorimetry	354
311.11 K, Crystal 3, Small (less than 1 g) adiabatic calorimetry	354.6
312.75 K, Crystal 3, Small (less than 1 g) adiabatic calorimetry	356.8
313.06 K, Crystal 3, Small (less than 1 g) adiabatic calorimetry	356.9
314.38 K, Crystal 3, Small (less than 1 g) adiabatic calorimetry	359.1
315.04 K, Crystal 3, Small (less than 1 g) adiabatic calorimetry	359.6
316.02 K, Crystal 3, Small (less than 1 g) adiabatic calorimetry	361.4
317.02 K, Crystal 3, Small (less than 1 g) adiabatic calorimetry	362.4
317.64 K, Crystal 3, Small (less than 1 g) adiabatic calorimetry	363.7
319 K, Crystal 3, Small (less than 1 g) adiabatic calorimetry	365.1
319.26 K, Crystal 3, Small (less than 1 g) adiabatic calorimetry	366
320.52 K, Crystal 3, Small (less than 1 g) adiabatic calorimetry	367.5
320.8 K, Crystal 3, Small (less than 1 g) adiabatic calorimetry	367.7
321.41 K, Crystal 3, Small (less than 1 g) adiabatic calorimetry	368.7
322.3 K, Crystal 3, Small (less than 1 g) adiabatic calorimetry	370.2
322.43 K, Crystal 3, Small (less than 1 g) adiabatic calorimetry	370.1
323.19 K, Crystal 3, Small (less than 1 g) adiabatic calorimetry	371.6
324.05 K, Crystal 3, Small (less than 1 g) adiabatic calorimetry	372.5
324.09 K, Crystal 3, Small (less than 1 g) adiabatic calorimetry	372.8
324.98 K, Crystal 3, Small (less than 1 g) adiabatic calorimetry	374.1
325.67 K, Crystal 3, Small (less than 1 g) adiabatic calorimetry	375
325.87 K, Crystal 3, Small (less than 1 g) adiabatic calorimetry	375.2
326.76 K, Crystal 3, Small (less than 1 g) adiabatic calorimetry	376.5
327.28 K, Crystal 3, Small (less than 1 g) adiabatic calorimetry	377.6
327.65 K, Crystal 3, Small (less than 1 g) adiabatic calorimetry	377.8
328.53 K, Crystal 3, Small (less than 1 g) adiabatic calorimetry	379.5
328.89 K, Crystal 3, Small (less than 1 g) adiabatic calorimetry	380.4
329.42 K, Crystal 3, Small (less than 1 g) adiabatic calorimetry	380.9
330.31 K, Crystal 3, Small (less than 1 g) adiabatic calorimetry	382.3
330.5 K, Crystal 3, Small (less than 1 g) adiabatic calorimetry	384
331.19 K, Crystal 3, Small (less than 1 g) adiabatic calorimetry	388.1
332.05 K, Crystal 3, Small (less than 1 g) adiabatic calorimetry	401.3
332.08 K, Crystal 3, Small (less than 1 g) adiabatic calorimetry	395.6
332.9 K, Crystal 3, Small (less than 1 g) adiabatic calorimetry	409.2
333.64 K, Crystal 3, Small (less than 1 g) adiabatic calorimetry	409.5
333.73 K, Crystal 3, Small (less than 1 g) adiabatic calorimetry	418.7
334.55 K, Crystal 3, Small (less than 1 g) adiabatic calorimetry	433.2
335.12 K, Crystal 3, Small (less than 1 g) adiabatic calorimetry	446.3
335.33 K, Crystal 3, Small (less than 1 g) adiabatic calorimetry	453.8
336.07 K, Crystal 2, Small (less than 1 g) adiabatic calorimetry	469.6
336.53 K, Crystal 2, Small (less than 1 g) adiabatic calorimetry	499.5
336.81 K, Crystal 2, Small (less than 1 g) adiabatic calorimetry	461.5
337.59 K, Crystal 2, Small (less than 1 g) adiabatic calorimetry	432.8
337.89 K, Crystal 2, Small (less than 1 g) adiabatic calorimetry	481.7
338.4 K, Crystal 2, Small (less than 1 g) adiabatic calorimetry	410.4
339.25 K, Crystal 2, Small (less than 1 g) adiabatic calorimetry	400.5
339.33 K, Crystal 2, Small (less than 1 g) adiabatic calorimetry	423.8
340.12 K, Crystal 2, Small (less than 1 g) adiabatic calorimetry	396.8
340.86 K, Crystal 2, Small (less than 1 g) adiabatic calorimetry	403.4
340.99 K, Crystal 2, Small (less than 1 g) adiabatic calorimetry	393.9
341.87 K, Crystal 2, Small (less than 1 g) adiabatic calorimetry	393.4
342.42 K, Crystal 2, Small (less than 1 g) adiabatic calorimetry	398.5
342.75 K, Crystal 2, Small (less than 1 g) adiabatic calorimetry	393.3
343.63 K, Crystal 2, Small (less than 1 g) adiabatic calorimetry	393.7
343.99 K, Crystal 2, Small (less than 1 g) adiabatic calorimetry	395.4
344.52 K, Crystal 2, Small (less than 1 g) adiabatic calorimetry	394.3
345.4 K, Crystal 2, Small (less than 1 g) adiabatic calorimetry	395
345.57 K, Crystal 2, Small (less than 1 g) adiabatic calorimetry	396.6
346.29 K, Crystal 2, Small (less than 1 g) adiabatic calorimetry	395.9
347.15 K, Crystal 2, Small (less than 1 g) adiabatic calorimetry	397.4
347.17 K, Crystal 2, Small (less than 1 g) adiabatic calorimetry	396.8
348.06 K, Crystal 2, Small (less than 1 g) adiabatic calorimetry	397.6
348.72 K, Crystal 2, Small (less than 1 g) adiabatic calorimetry	398.5
348.95 K, Crystal 2, Small (less than 1 g) adiabatic calorimetry	398.4
349.84 K, Crystal 2, Small (less than 1 g) adiabatic calorimetry	399.5
350.3 K, Crystal 2, Small (less than 1 g) adiabatic calorimetry	400
351.09 K, Crystal 2, Small (less than 1 g) adiabatic calorimetry	401.1
351.88 K, Crystal 2, Small (less than 1 g) adiabatic calorimetry	403.6
352.68 K, Crystal 2, Small (less than 1 g) adiabatic calorimetry	402.9
353.46 K, Crystal 2, Small (less than 1 g) adiabatic calorimetry	405.6
354.28 K, Crystal 2, Small (less than 1 g) adiabatic calorimetry	404.8
355.03 K, Crystal 2, Small (less than 1 g) adiabatic calorimetry	407.3
355.88 K, Crystal 2, Small (less than 1 g) adiabatic calorimetry	406.9
356.61 K, Crystal 2, Small (less than 1 g) adiabatic calorimetry	409.2
357.47 K, Crystal 2, Small (less than 1 g) adiabatic calorimetry	408.7
358.18 K, Crystal 2, Small (less than 1 g) adiabatic calorimetry	411.3
359.05 K, Crystal 2, Small (less than 1 g) adiabatic calorimetry	411
359.75 K, Crystal 2, Small (less than 1 g) adiabatic calorimetry	413.4
360.64 K, Crystal 2, Small (less than 1 g) adiabatic calorimetry	412.9
361.32 K, Crystal 2, Small (less than 1 g) adiabatic calorimetry	415.4
362.22 K, Crystal 2, Small (less than 1 g) adiabatic calorimetry	414.6
362.88 K, Crystal 2, Small (less than 1 g) adiabatic calorimetry	417.5
363.82 K, Crystal 2, Small (less than 1 g) adiabatic calorimetry	416.7
364.44 K, Crystal 2, Small (less than 1 g) adiabatic calorimetry	419.7
365.3 K, Crystal 2, Large sample (1 g) DSC	422.2
365.4 K, Crystal 2, Small (less than 1 g) adiabatic calorimetry	418.8
366 K, Crystal 2, Small (less than 1 g) adiabatic calorimetry	421.6
366.98 K, Crystal 2, Small (less than 1 g) adiabatic calorimetry	420.9
367.55 K, Crystal 2, Small (less than 1 g) adiabatic calorimetry	423.3
368.55 K, Crystal 2, Small (less than 1 g) adiabatic calorimetry	423
368.9 K, Crystal 2, Large sample (1 g) DSC	422.5
372.5 K, Crystal 2, Large sample (1 g) DSC	428.1
376.1 K, Crystal 2, Large sample (1 g) DSC	435.3
379.7 K, Crystal 2, Large sample (1 g) DSC	439.7
383.3 K, Crystal 2, Large sample (1 g) DSC	443.1
386.9 K, Crystal 2, Large sample (1 g) DSC	448.3
390.4 K, Crystal 2, Large sample (1 g) DSC	452.1
394 K, Crystal 2, Large sample (1 g) DSC	456.9
397.6 K, Crystal 2, Large sample (1 g) DSC	460.5
401.2 K, Crystal 2, Large sample (1 g) DSC	466.4
404.8 K, Crystal 2, Large sample (1 g) DSC	471.7
408.4 K, Crystal 2, Large sample (1 g) DSC	471.9
412 K, Crystal 2, Large sample (1 g) DSC	478.1
415.6 K, Crystal 2, Large sample (1 g) DSC	481.4
419.2 K, Crystal 2, Large sample (1 g) DSC	490.8
422.8 K, Crystal 2, Large sample (1 g) DSC	493.1
426.4 K, Crystal 2, Large sample (1 g) DSC	496.1
430 K, Crystal 2, Large sample (1 g) DSC	501.3
433.6 K, Crystal 2, Large sample (1 g) DSC	507.8
437.1 K, Crystal 2, Large sample (1 g) DSC	513
440.7 K, Crystal 2, Large sample (1 g) DSC	519.9
444.3 K, Crystal 2, Large sample (1 g) DSC	525
447.9 K, Crystal 2, Large sample (1 g) DSC	529.9
451.5 K, Crystal 2, Large sample (1 g) DSC	537.9
455.1 K, Crystal 2, Large sample (1 g) DSC	544.8
458.7 K, Crystal 2, Large sample (1 g) DSC	549.6
462.3 K, Crystal 2, Large sample (1 g) DSC	556.8
465.9 K, Crystal 2, Large sample (1 g) DSC	563.6
469.5 K, Crystal 2, Large sample (1 g) DSC	572.6
473 K, Crystal 2, Large sample (1 g) DSC	579.1
476.6 K, Crystal 2, Large sample (1 g) DSC	584.1
480.2 K, Crystal 2, Large sample (1 g) DSC	587.8
483.8 K, Crystal 2, Large sample (1 g) DSC	600.3
487.4 K, Crystal 2, Large sample (1 g) DSC	611.9
491 K, Crystal 2, Large sample (1 g) DSC	607.2
494.6 K, Crystal 2, Large sample (1 g) DSC	617.9
495.5 K, Crystal 2, Large sample (1 g) DSC	621.1
496.4 K, Crystal 2, Large sample (1 g) DSC	621.4
497.3 K, Crystal 2, Large sample (1 g) DSC	621.7
498.1 K, Crystal 2, Large sample (1 g) DSC	626.7
499 K, Crystal 2, Large sample (1 g) DSC	629.7
499.9 K, Crystal 2, Large sample (1 g) DSC	632.7
500.8 K, Crystal 2, Large sample (1 g) DSC	635.2
501.7 K, Crystal 2, Large sample (1 g) DSC	637.1
502.6 K, Crystal 2, Large sample (1 g) DSC	636.9
503.5 K, Crystal 2, Large sample (1 g) DSC	639
504.4 K, Crystal 2, Large sample (1 g) DSC	644.5
505.3 K, Crystal 2, Large sample (1 g) DSC	647.9
506.2 K, Crystal 2, Large sample (1 g) DSC	659.8
507 K, Crystal 2, Large sample (1 g) DSC	693.8
507.9 K, Crystal 2, Large sample (1 g) DSC	741.7
508.7 K, Crystal 2, Large sample (1 g) DSC	773.6
509.6 K, Crystal 1, Large sample (1 g) DSC	792.3
510.6 K, Crystal 1, Large sample (1 g) DSC	763.7
511.5 K, Crystal 1, Large sample (1 g) DSC	724.5
512.4 K, Crystal 1, Large sample (1 g) DSC	700.9
513.3 K, Crystal 1, Large sample (1 g) DSC	684.2
514.2 K, Crystal 1, Large sample (1 g) DSC	674.9
515.2 K, Crystal 1, Large sample (1 g) DSC	668.9
516.1 K, Crystal 1, Large sample (1 g) DSC	662.2
517 K, Crystal 1, Large sample (1 g) DSC	655.5
517.9 K, Crystal 1, Large sample (1 g) DSC	658.8
518.8 K, Crystal 1, Large sample (1 g) DSC	647.2
519.7 K, Crystal 1, Large sample (1 g) DSC	637.1
520.6 K, Crystal 1, Large sample (1 g) DSC	640.5
522.4 K, Crystal 1, Large sample (1 g) DSC	641.1
523.3 K, Crystal 1, Large sample (1 g) DSC	647.5
524.2 K, Crystal 1, Large sample (1 g) DSC	653.8
525.1 K, Crystal 1, Large sample (1 g) DSC	653.9
526.8 K, Crystal 1, Large sample (1 g) DSC	660.2
527.7 K, Crystal 1, Large sample (1 g) DSC	653
528.6 K, Crystal 1, Large sample (1 g) DSC	663.2
529.5 K, Crystal 1, Large sample (1 g) DSC	664.4
530.4 K, Crystal 1, Large sample (1 g) DSC	664.4
531.3 K, Crystal 1, Large sample (1 g) DSC	663.3
532.2 K, Crystal 1, Large sample (1 g) DSC	664.8
533.1 K, Crystal 1, Large sample (1 g) DSC	667.8
534 K, Crystal 1, Large sample (1 g) DSC	666.7
534.9 K, Crystal 1, Large sample (1 g) DSC	674.5
535.8 K, Crystal 1, Large sample (1 g) DSC	671
536.7 K, Crystal 1, Large sample (1 g) DSC	671.7
537.6 K, Crystal 1, Large sample (1 g) DSC	675
538.5 K, Crystal 1, Large sample (1 g) DSC	681.1
539.4 K, Crystal 1, Large sample (1 g) DSC	676.6
540.3 K, Crystal 1, Large sample (1 g) DSC	677
543.1 K, Crystal 1, Large sample (1 g) DSC	681.3
544.9 K, Crystal 1, Large sample (1 g) DSC	692.5
546.7 K, Crystal 1, Large sample (1 g) DSC	693.7
548.5 K, Crystal 1, Large sample (1 g) DSC	702.1
550.3 K, Crystal 1, Large sample (1 g) DSC	709.8
552.1 K, Crystal 1, Large sample (1 g) DSC	724.2
553.9 K, Crystal 1, Large sample (1 g) DSC	741
555.7 K, Crystal 1, Large sample (1 g) DSC	752.9
557.4 K, Crystal 1, Large sample (1 g) DSC	744.3
559.2 K, Crystal 1, Large sample (1 g) DSC	772.6
561 K, Crystal 1, Large sample (1 g) DSC	802.7
